Results taken from ChEMBL document CHEMBL1158776, “Pseudoguanolide sesquiterpene lactones from Vernoniopsis caudata and their in vitro antiplasmodial activities” (J Nat Prod, 2005).
pIC50: −log10 of the molar value.

Columns and labels:
Plasmodium falciparum = assay: Antiplasmodial activity against chloroquine-resistant Plasmodium falciparum FCB1 in human blood as [G-3H]hypoxanthine uptake; type: functional, organism-based
KB = assay: Cytotoxicity against human KB cells after 72 hrs; type: functional, cell-based

Row | SMILES | pIC50 (Plasmodium falciparum) | pIC50 (KB)
1 | C=C1C(=O)O[C@@H]2C[C@@H](C)[C@@H]3C=CC(=O)[C@@]3(C)[C@@H](OC(=O)C(=C)[C@@H](C)O)[C@H]12 | 6.00 | 6.48
2 | C=C(C(=O)O[C@H]1[C@H]2[C@@H](C[C@@H](C)[C@@H]3C=CC(=O)[C@]31C)OC(=O)[C@@H]2C)[C@@H](C)O | 6.39 | 7.30
3 | C=C1C(=O)O[C@@H]2C[C@@H](C)[C@@H]3C=CC(=O)[C@@]3(C)[C@@H](OC(=O)/C(=C\C)CO)[C@H]12 | 6.72 | 6.03
4 | COc1cccc2c1C(=O)c1c(O)c3c(c(O)c1C2=O)C[C@@](O)(C(=O)CO)C[C@@H]3O[C@H]1C[C@H](N)[C@H](O)[C@H](C)O1 [DOXORUBICIN] | – | 6.57
